Results published in US12409206B2, “Use of cyclosporine analogues for treating fibrosis” (Hepion Pharmaceuticals, Inc., priority 2020, dated 2025).

Test system: human precision cut liver slices (PCLS)
Assay: PCLS RNA-Seq, Nonstimulation Protocol: Non-stimulated+CRV vs Non-stimulated+Vehicle
Type: cell-based
Conditions: for log2FoldChange: Non-stimulated+CRV vs Non-stimulated+Vehicle; for fold change in RNA: absence of TGFβ+PDGF-BB, universal in all donors
Protocol: PCLS were obtained from 5 human donors who underwent resection of liver cancer. Replicate slices were collected from healthy margins of the resections and cultured for 4 or 6 days depending on the experimental protocol. In the Nonstimulation Protocol slices were cultured for 6 days and treated for the entire period with DMSO vehicle or 5 μM CRV431. In the Stimulation Protocol slices were rested for 1 day and then administered the cytokines, TGFβ and PDGF-BB, for 3 days to stimulate inflammation and fibrosis. DMSO vehicle, CRV431 (1 and 5 μM), Alk5i (10 μM), obeticholic acid (5 μM), elafibranor (5 μM), resmetirom ([…]), and Aramchol (5 μM) were administered individually as drug treatments in the Stimulation Protocol concurrent with TGFβ+PDGF-BB. Culture medium treatments were replaced daily.
Four types of evaluations were conducted on the PCLS: (a) secretion of inflammation and fibrosis biomarkers into the culture medium, (b) histological staining and quantitation of Sirius red as a measure of tissue fibrosis, (c) gene expression of inflammation and fibrosis biomarkers by RT-PCR, and (d) RNA sequencing (RNA-Seq) of the complete transcriptome. Each of the four types of evaluation is described below: • (a) Biomarker secretion. Spent culture medium was collected daily from duplicate slices for each treatment. ELISAs were used to quantify secretion of monocyte chemoattractant protein (MCP-1), interleukin-6 (IL-6), tissue inhibitor of metalloproteinase-1 (TIMP1), hyaluronic acid, fibronectin, and collagen 1α1. For each donor the mean level of biomarker secretion in each treatment group was expressed as a percentage change relative to DMSO vehicle, the percentages averaged for all donors, and finally the mean daily percentage change calculated from all days of evaluation. Results are shown in FIG. 8A (secreted markers-% daily average change). • (b) Sirius red histological staining. […] Sirius red was quantified morphometrically in the histological sections as the percentage area with Sirius red staining in 10 sections from each treatment. In the Nonstimulation Protocol the quantity of Sirius red staining was expressed relative to the vehicle group. In the Stimulation Protocol the quantity of Sirius red staining was expressed relative to nonstimulated PCLS (0%) and TGFβ+PDGF-BB-stimulated+vehicle PCLS (100%). Results are shown in FIG. 8B (Sirius red staining for tissue fibrosis). • (c) Gene expression by RT-PCR. RNA was isolated from duplicate liver slices per treatment at the end of the experiments and evaluated by RT-PCR for 5 markers of inflammation and fibrosis: MCP-1, IL-6, TIMP1, αSMA, and collagen 1α1. β actin was used as a reference gene to calculate relative levels of each target gene RNA. […] Results are shown in FIG. 8C (gene expression by RT-PCR). • (d) Gene expression by RNA-Seq. RNA sequencing of the complete transcriptome (30 million reads per sample) was conducted on vehicle and 5 μM CRV431 treatment groups from 3 donors both from the Nonstimulation and Stimulation Protocols. Data were analyzed by bioinformatics software programs to identify genes that were differentially expressed between vehicle and CRV431 treatments.
For the evaluation done for (d), 12 samples corresponding to 3 different donor slides which underwent 4 different treatments were studied. the comparisons carried out in this analysis are: (1) TGFb/PDGF+CRV vs TGFb/PDGF+Vehicle (V), and (2) Non-stimulated+CRV vs Non-stimulated+Vehicle. […] Table 1. Samples for evaluation (d)
Quality Control check was performed in all samples. All samples had more than 30 million reads and a quality score average >35 for almost all the bases in the sequences. The duplication levels are expected as it is RNA sequencing, and different copies of the same RNA are expected to be present in the samples. All samples had good amount of reads and quality, therefore all samples passed the QC checked and were included in the analysis. […]

For CC[C@@H]1NC(=O)[C@H]([C@H](O)[C@H](C)CCCCCCNC(C)=O)N(C)C(=O)[C@H](C(C)C)N(C)C(=O)[C@H](CC(C)C)N(C)C(=O)[C@H](CC(C)C)N(C)C(=O)[C@@H](C)NC(=O)[C@H](C)NC(=O)[C@H](CC(C)C)N(C)C(=O)[C@H](C(C)C)NC(=O)[C@H](CC(C)C)N(C)C(=O)[C@@H](C)N(C)C1=O [CRV431], the log2FoldChange (gene ACOT9) was 0.543, the log2FoldChange (gene AP003119.3) was −0.67 and the log2FoldChange (gene AREG) was 1.034. It also gave a log2FoldChange (gene CCDC149) of 0.76, a log2FoldChange (gene CDH11) of −0.915 and a log2FoldChange (gene CXCL12) of 0.623. For the same compound, the log2FoldChange (gene CYP24A1) was −1.499, the log2FoldChange (gene DDX60) was −0.739 and the “fold change in RNA” value (gene DKK1) was “+3.8 fold”. For the same compound, the log2FoldChange (gene DNAJB9) was 0.721, the “fold change in RNA” value (gene ESM1) was −2.2 fold and the log2FoldChange (gene GDPD5) was −0.606. The log2FoldChange (gene GMPPA) was 0.768, the “fold change in RNA” value (gene IFI44L) was −4.8 fold and the log2FoldChange (gene KRT7) was 0.563. The log2FoldChange (gene MPEG1) was 0.584, the log2FoldChange (gene MS4A4A) was 0.735 and the log2FoldChange (gene NCOA3) was −1.438. For the same compound, the “fold change in RNA” value (gene NCOA3) was −2.7 fold, the log2FoldChange (gene NREP) was −0.638 and the log2FoldChange (gene NUCB2) was 0.851. The log2FoldChange (gene NUMA1) was −0.537, the log2FoldChange (gene PGM3) was 0.751 and the log2FoldChange (gene POU2F2) was 2.856. For the same compound, the log2FoldChange (gene SERPINB2) was 1.255, the log2FoldChange (gene SNHG3) was 0.665 and the log2FoldChange (gene SOWAHC) was −0.601. For the same compound, the log2FoldChange (gene SRGAP2B) was −0.729 and the “fold change in RNA” value (gene mIR-194-2) was −7.9 fold.
